Experimental data taken from patent publication US12655116B2, “Substituted isophthalic acid diamides” (Bayer Aktiengesellschaft, priority 2020, dated 2026).

Assays:
[1] = system: ABUTH; experiment: Post-emergence herbicidal action against ABUTH; type: in vivo, Abutilon theophrasti; settings: Abutilon theophrasti, 504 h, visual assessment about 3 weeks after treatment vs untreated controls; for pest or weed control at 5 g/ha: dosage 5 g/ha; for pest or weed control at 20 g/ha: dosage 20 g/ha
In short: (§1)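 Sandy loam, greenhouse; treatment 2–3 weeks after sowing, one-leaf stage. Aqueous suspension or emulsion from WP/EC sprayed on foliage (600–800 l/ha, 0.2% wetting agent). Readout: visual % action, ~3 weeks.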

[2] = system: AVEFA; experiment: Pre-emergence herbicidal action against AVEFA; type: in vivo, Avena fatua; settings: Avena fatua, 504 h; 80 g/ha, pre-emergence
In short: (§2)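 Seeds sown in sandy loam, soil-covered; compound sprayed on soil surface pre-emergence. Application: WP/EC, 600–800 l/ha, 0.2% wetting agent. Readout: visual % damage at 3 weeks.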

[3] = system: VERPE; experiment: Pre-emergence herbicidal action against VERPE; type: in vivo, Veronica persica; settings: Veronica persica, 504 h; for pest or weed control at 80 g/ha: dosage 80 g/ha
In short: as §2

[4] = system: VIOTR; experiment: Pre-emergence herbicidal action against VIOTR; type: in vivo, Viola tricolor; settings: Viola tricolor, 504 h; for pest or weed control at 20 g/ha: dosage 20 g/ha; for pest or weed control at 80 g/ha: dosage 80 g/ha
In short: as §2

[5] = system: MATIN; experiment: Post-emergence herbicidal action against MATIN; type: in vivo, Matricaria inodora; settings: Tripleurospermum inodorum, 504 h; for pest or weed control at 20 g/ha: dosage 20 g/ha
In short: as §1

[6] = system: MATIN; experiment: Pre-emergence herbicidal action against MATIN; type: in vivo, Matricaria inodora; settings: Tripleurospermum inodorum, 504 h; for pest or weed control at 20 g/ha: dosage 20 g/ha; for pest or weed control at 80 g/ha: dosage 80 g/ha
In short: as §2

[7] = system: VIOTR; experiment: Post-emergence herbicidal action against VIOTR; type: in vivo, Viola tricolor; settings: Viola tricolor, 504 h
In short: as §1

[8] = system: DIGSA; experiment: Pre-emergence herbicidal action against DIGSA; type: in vivo, Digitaria sanguinalis; settings: Digitaria sanguinalis, 504 h; for pest or weed control at 20 g/ha: dosage 20 g/ha; for pest or weed control at 80 g/ha: dosage 80 g/ha
In short: as §2

[9] = system: PHBPU; experiment: Post-emergence herbicidal action against PHBPU; type: in vivo, Pharbitis purpurea; settings: Ipomoea purpurea, 504 h, dosage 20 g/ha
In short: as §1

[10] = system: AMARE; experiment: Pre-emergence herbicidal action against AMARE; type: in vivo, Amaranthus retroflexus; settings: Amaranthus retroflexus, 504 h, scored visually after 3 weeks vs untreated controls, 100% = plants have died, 0% = like control plants
In short: as §2

[11] = system: ALOMY; experiment: Post-emergence herbicidal action against ALOMY; type: in vivo, Alopecurus myosuroides; settings: Alopecurus myosuroides, 504 h, dosage 20 g/ha, visual assessment about 3 weeks after treatment vs untreated controls
In short: as §1

[12] = system: DIGSA; experiment: Post-emergence herbicidal action against DIGSA; type: in vivo, Digitaria sanguinalis; settings: Digitaria sanguinalis, 504 h
In short: as §1

[13] = system: LOLRI; experiment: Pre-emergence herbicidal action against LOLRI; type: in vivo, Lolium rigidum; settings: Lolium rigidum, 504 h, 80 g/ha
In short: as §2

[14] = system: POLCO; experiment: Pre-emergence herbicidal action against POLCO; type: in vivo, Polygonum convolvulus; settings: Fallopia convolvulus, 504 h, dosage 80 g/ha
In short: as §2

[15] = system: ALOMY; experiment: Pre-emergence herbicidal action against ALOMY; type: in vivo, Alopecurus myosuroides; settings: Alopecurus myosuroides, 504 h, pre-emergence; for pest or weed control at 80 g/ha: scored visually after 3 weeks vs untreated controls (100% = plants have died, 0% = like control plants)
In short: as §2

[16] = system: PHBPU; experiment: Pre-emergence herbicidal action against PHBPU; type: in vivo, Pharbitis purpurea; settings: Ipomoea purpurea, 504 h, dosage 80 g/ha
In short: as §2

[17] = system: ECHCG; experiment: Post-emergence herbicidal action against ECHCG; type: in vivo, Echinochloa crus-galli; settings: Echinochloa crus-galli, 504 h
In short: as §1

[18] = system: ECHCG; experiment: Pre-emergence herbicidal action against ECHCG; type: in vivo, Echinochloa crus-galli; settings: Echinochloa crus-galli, 504 h
In short: as §2

[19] = system: AMARE; experiment: Post-emergence herbicidal action against AMARE; type: in vivo, Amaranthus retroflexus; settings: Amaranthus retroflexus, 504 h, 20 g/ha, visual assessment about 3 weeks after treatment, 100% = plants have died, 0% = like control plants
In short: as §1

[20] = system: ABUTH; experiment: Pre-emergence herbicidal action against ABUTH; type: in vivo, Abutilon theophrasti; settings: Abutilon theophrasti, 504 h; for pest or weed control at 80 g/ha: scored visually after 3 weeks vs untreated controls (100% = plants have died, 0% = like control plants); for pest or weed control at 20 g/ha: dosage 20 g/ha, scored visually after 3 weeks vs untreated controls, 100% = plants have died, 0% = like control plants, read-out: Pre-emergence action against ABUTH (herbicidal activity in percent)
In short: as §2

[21] = system: SETVI; experiment: Post-emergence herbicidal action against SETVI; type: in vivo, Setaria viridis; settings: Setaria viridis, 504 h
In short: as §1

[22] = system: SETVI; experiment: Pre-emergence herbicidal action against SETVI; type: in vivo, Setaria viridis; settings: Setaria viridis, 504 h; for pest or weed control at 80 g/ha: dosage 80 g/ha
In short: as §2

Row | SMILES | pest or weed control at 5 g/ha [1] | pest or weed control at 20 g/ha [1] | pest or weed control at 80 g/ha [2] | pest or weed control at 80 g/ha [3] | pest or weed control at 20 g/ha [4] | pest or weed control at 80 g/ha [4] | pest or weed control at 20 g/ha [5] | pest or weed control at 20 g/ha [6] | pest or weed control at 80 g/ha [6] | pest or weed control at 20 g/ha [7] | pest or weed control at 20 g/ha [8] | pest or weed control at 80 g/ha [8] | pest or weed control at 20 g/ha [9] | pest or weed control at 20 g/ha [10] | pest or weed control at 80 g/ha [10] | pest or weed control at 20 g/ha [11] | pest or weed control at 80 g/ha [13] | pest or weed control at 80 g/ha [14] | pest or weed control at 80 g/ha [15] | pest or weed control at 80 g/ha [16] | further results
1 | Cn1nnnc1NC(=O)c1ccc(C(F)(F)F)c(C(=O)NC2CC2)c1C1CC1 [Example 1-288] | 80% | 80% | 90% | 100% | 100% | 100% | 100% | 100% | 100% | 90% | 100% | 100% | 80% | 100% | 100% | 90% | 80% | 80% | 90% | 100% | pest or weed control at 5 g/ha ([5]; dosage 5 g/ha): 90%; pest or weed control at 5 g/ha ([7]; 5 g/ha): 90%; pest or weed control at 5 g/ha ([12]; 5 g/ha): 90%; pest or weed control at 20 g/ha ([12]; 20 g/ha): 100%; pest or weed control at 5 g/ha ([17]; dosage 5 g/ha): 80%; pest or weed control at 20 g/ha ([17]; dosage 20 g/ha): 80%; pest or weed control at 20 g/ha ([18]; 20 g/ha): 80%; pest or weed control at 80 g/ha [18]: 100%; pest or weed control at 20 g/ha [19]: 100%; pest or weed control at 80 g/ha [20]: 100%; pest or weed control at 20 g/ha [20]: 100%; pest or weed control at 5 g/ha ([21]; dosage 5 g/ha): 80%; pest or weed control at 20 g/ha ([21]; dosage 20 g/ha): 100%; pest or weed control at 20 g/ha ([22]; dosage 20 g/ha): 100%; pest or weed control at 80 g/ha [22]: 100%
2 | CCn1nnnc1NC(=O)c1ccc(C(F)F)c(C(=O)NC(C)C)c1Cl [Example 2-155] | 80% | 80% | 90% | 100% | 90% | 100% | 90% | 100% | 100% | 80% | 100% | 100% | 80% | 100% | 100% | 90% | 80% | 90% | 100% | 100% | pest or weed control at 20 g/ha ([3]; dosage 20 g/ha): 80%; pest or weed control at 20 g/ha ([15]; 20 g/ha, scored visually after 3 weeks, 100% = plants have died, 0% = like control plants): 80%; pest or weed control at 80 g/ha [18]: 100%; pest or weed control at 20 g/ha [19]: 90%; pest or weed control at 80 g/ha [20]: 100%; pest or weed control at 20 g/ha [20]: 100%; pest or weed control at 80 g/ha [22]: 90%
